In patent publication US8716355B2, “Hydroxylated tolans and related compounds in the treatment of a cancer” (Kent State University, priority 2007, dated 2014):

Key:
[1] = test system: caspase-3; assay: Caspase-3 activity in DU145 cells (fluorimetric immunosorbent enzyme assay); assay type: cell-based, human
Experimental: FIG. 5. Measurement of Caspase-3 Activity in Resveratrol-treated DU145 cells. […] Activity of proteolytic cleavage was determined fluorometrically using Ac-DEVD-AFC as a substrate for activated caspase-3 immobilized on the well surface. The results represent mean±SD of triplicate determinations. The positive control (“Post. Ctl”) was camptothecin-induced apoptosis in U937 cells.
FIG. 6. Measurement of Caspase-3 Activity of KST-201-treated DU145 cells as a function of dose. […] Activity of proteolytic cleavage (caspase-3 activity) and other details are as above.
FIG. 7. Time course of Caspase-3 Activation by KST201 in DU145 cells as a measure of apoptosis. DU145 cells were treated at CD50 of KST201 for 12, 24 or 48 hours. Details are as described for FIG. 5.
The proteolytic activity of caspase-3 in DU145 cells, was measured using a fluorimetric immunosorbent enzyme assay kit. […] After washing and centrifuging, the cell pellet was collected and incubated with dithiothreitol (DTT) lysis buffer on ice. The cell lysate was then transferred to a centrifuge tube for measurement of proteolytic cleavage by caspase-3 utilizing a fluorimetric immunosorbent enzyme assay kit (Roche, Indianapolis, Ind.). Antibody against caspase-3 was diluted in the coating buffer and immobilized to the surface of 96-well plates followed by washing steps. Compound-treated cell lysates and the untreated controls were added to the plate and incubated for one hour at 37° C. Any caspase-3 in the samples was captured by the immobilized antibody. The caspase-3 enzyme cleaved its fluorogenic substrate Ac-DEVD-AFC when it was added to the wells, resulting in. free fluorescent AFC that was measured in a Fluoroskan® Ascent FL plate reader (Thermo, Waltham, Mass.) with a filter set at an excitation/emission of 390 nm/[…]. The fluorescence intensity was proportional to the concentration of AFC determined by a standard curve, generated by different dilutions of AFC standard included in the kit. The amount of activated caspase-3 in the sample was derived from this curve.

[2] = molecular target: T1, human recombinant COX-2 (Homo sapiens, UniProt P35354); assay: COX Inhibitor Screening Assay, COX2; assay type: biochemical; conditions: doses of 10 to 200 μM tested
T1 construct: purchased Cayman Chemical 560131
T1 sequence (P35354 18-604): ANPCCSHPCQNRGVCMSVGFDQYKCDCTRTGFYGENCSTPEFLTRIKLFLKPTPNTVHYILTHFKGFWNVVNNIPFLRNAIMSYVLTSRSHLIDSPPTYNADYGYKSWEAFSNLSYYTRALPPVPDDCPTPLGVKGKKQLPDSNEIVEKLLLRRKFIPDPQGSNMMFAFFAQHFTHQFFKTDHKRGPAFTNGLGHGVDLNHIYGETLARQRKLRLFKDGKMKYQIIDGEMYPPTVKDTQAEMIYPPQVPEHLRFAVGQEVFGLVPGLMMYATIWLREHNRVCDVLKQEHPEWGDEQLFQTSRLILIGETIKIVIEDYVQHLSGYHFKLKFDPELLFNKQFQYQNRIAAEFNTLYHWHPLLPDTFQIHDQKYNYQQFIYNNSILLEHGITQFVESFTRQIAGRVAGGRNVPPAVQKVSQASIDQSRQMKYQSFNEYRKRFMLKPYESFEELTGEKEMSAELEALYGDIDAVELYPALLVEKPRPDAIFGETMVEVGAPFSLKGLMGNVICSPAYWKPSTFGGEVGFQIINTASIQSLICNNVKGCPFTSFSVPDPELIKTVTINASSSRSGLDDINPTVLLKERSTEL
Description: The Cayman COX Inhibitor Screening Assay includes both ovine COX-1 and human recombinant COX-2 enzymes in order to screen isozyme-specific inhibitors.

[3] = test system: prostate cancer; assay: Prostate cancer patients (Example VIII A); assay type: in vivo, human; conditions: daily 10 μg to 5 mg/Kg; no significant differences between the four groups
Experimental: A group of 40 men aged 55-75 suffering from prostate cancer receive a daily dosage of between 10 μg and 5 mg/Kg body weight of KST-201, KST-213, KST-301 or KST-401 (10 patients per compound). Examination of the patients by clinical, radiographic and histopathological tests show significant shrinkage in tumors, and signs of cell death in 38% of the patients; there are no significant differences between the four treatment groups.

[4] = test system: bladder cancer; assay: Bladder cancer patients (Example VIII B); assay type: in vivo, human; conditions: intravenous 10 μg to 5 mg/kg over three months
Experimental: A group of 20 men and 20 women aged 50-75 with bladder cancer are treated by intravenous injection of between 10 μg and 5 mg/kg of KST-201, KST-213, KST-301 or KST-401. Each compound is given to a group of 5 men and 5 women) over a period of three months. Clinical, radiographic and histopathological tests show significant remission in 35% of patients, accompanied by signs of cell death in 45%. There are no significant differences between the results with the four compounds.

[5] = test system: colon cancer; assay: Colon cancer patients (Example VIII E); assay type: in vivo, human
Experimental: Eight patients suffering from advanced colon cancer are treated daily for three weeks with an intravenous infusion of 2 g of the compounds KST-201, KST-213, KST-301 or KST-401 dissolved in saline. Two patients are assigned to each compound. The compounds are dissolved in sterile saline. […] Progression of the tumor is also arrested over the treatment period.
Another eight patients with terminal colon cancer are treated by daily bolus injections (intravenous or intramuscular) of 2 g of KST-201, KST-213, KST-301 or KST-401.

[6] = test system: HSV-1
Description: FIG. 2. […] A 10% w/v solution of KST-301 in DMSO was applied topically to the epidermal infection site 3×/day for 5 days. Controls animals received the same volume of the DMSO vehicle at the same intervals. Lesions were scored as 0=no visible lesions, +1=papules around the infection site, +2=papules are ulcerated around the infection site with eschar formation, +3=ulcerated zosteriform spread along peripheral nerves to the flank of the animal, +4=ulcerated lesions open on the flank, and +5=death of the animal.
The lesions were scored as in the description for FIG. 2.

[7] = test system: rat-organ homogenates; conditions: cited from earlier work
[8] = test system: rat-organ homogenates; conditions: cited from earlier work; remark: listed apart in the source
[9] = test system: rat erythrocyte (RBC); conditions: cited from earlier work
[10] = intravenous infusion 2 g daily for three weeks

Compound: Oc1ccc(C#Cc2ccc(O)cc2)cc1 [KST-201, 4,4′-dihydroxytolan]
- Caspase-3 activation ([1]; 0.5×CD50, 24 hr): effectively activated caspase-3
- Caspase-3 activity ([1]; 48 hours or 2×CD50): loss of caspase-3 activity
- Caspase-3 activation ([1]; CD50 concentration, 24 hr): activated significantly
- Inhibition of COX2 activity [2]: about 50%
- Patients with significant shrinkage in tumors, and signs of cell death [3]: 38%
- Patients with signs of cell death [4]: 45%
- Patients with significant remission ([4]; no differences between compounds): 35%
- Dissemination of the tumors ([5]; daily bolus injections (intravenous or intramuscular) of 2 g): dissemination of the tumors is diminished
- Cancer marker carcinoembryonic antigen (CEA) [5, 10]: significant reduction
- Progression of the tumor [5, 10]: arrested

Compound: Oc1ccc(/C=C/c2cc(O)cc(O)c2)cc1 [Resveratrol, 3,5,4′-trihydroxy-trans-stilbene, reference compound]
- Severity of HSV-1 lesions ([6]; 10% w/v solution in DMSO, topical 3×/day for 5 days, hairless mice): significantly reduced the severity of the lesions
- Treated animals in which lesion formation was prevented ([6]; topical solution in DMSO): 57-67%
- Treated animals showing evidence of HSV infection ([6]; topical solution in DMSO, controls 83-100%): 43%
- Maximum (average) lesion score ([6]; topical solution in DMSO, scale 0 to +5, controls 3.8-4 by days 8 and 9): 0.8-1.2
- Inhibition (%) of Fe2+ − VitC induced level of MDA at 15 μM, In rat brain ([7]; rat brain): 83.20%
- Inhibition (%) of Fe2+ − VitC induced level of MDA at 15 μM, In rat kidney ([7]; rat kidney): 62.15%
- Inhibition (%) of Fe2+ − VitC induced level of MDA at 15 μM, In rat liver ([7]; rat liver): 50.36%
- Inhibition (%) of autooxidation MDA level at 7.5 μM, In rat brain ([8]; rat brain): 69.93%
- Inhibition (%) of autooxidation MDA level at 7.5 μM, In rat kidney ([8]; rat kidney): 40.37%
- Inhibition (%) of autooxidation MDA level at 7.5 μM, In rat liver ([8]; rat liver): 67.69%
- Inhibition (%) of RBC hemolysis induced by H2O2 at 4 μM [9]: 45.23%
